From US12162896B2, “Salts and polymorphs of certain MCL-1 inhibitors” (Gilead Sciences, Inc., priority 2022, dated 2024)
Counter-ions that a name gives are not always drawn.

Assays:
MCL-1 = MCL-1 (Homo sapiens, UniProt Q07820); details: stated in background, WO 2019/222112; cited from earlier work
[1] = Competitive slurries of polymorph forms in EtOH; format: physicochemical; details: for outcome of competitive slurry with Form I: in EtOH
[2] = Hygroscopicity by dynamic vapor sorption (DVS); format: physicochemical; details: for hygroscopicity (DVS analysis, in words): 0% to 90% RH, about 25° C.; for water (moisture) absorbed by DVS: between 0% and 90% RH at about 25° C.
Experimental: (§1) Hygroscopicity was studied using dynamic vapor sorption (DVS, TA Q5000 SA, TA Instruments, New Castle, DE or DVS, DVS Intrinsic, Surface Measurement Systems, London, UK). A sample (2-20 mg) was placed in an aluminum DVS pan and loaded on the sample side of the twin pan balance. The water sorption and desorption were studied as a function of relative humidity (RH) at 25° C. In 10% RH increments, the relative humidity was increased from 40% RH to 90% RH and then decreased back to 0%, followed by repeating the full cycle from 0% RH up to 90% RH and back to 0% RH. […] Data analysis was performed using Universal Analysis 2000 Version 4.5A (TA Instruments, New Castle, DE) for TA DVS runs and Microsoft Excel for SMS DVS runs.

[3] = XRPD analysis of the sample post DVS (form change); format: physicochemical; details: sample after DVS cycles at 25° C.
Experimental: X-ray powder diffraction (XRPD) analysis was conducted on a diffractometer (PANalytical XPERT-PRO, PANalytical B. V., Almelo, Netherlands) using copper radiation (Cu Kα, λ=1.541874). Samples were spread evenly on a zero-background sample plate. The generator was operated at a voltage of 45 kV and amperage of 40 mA. Slits were Soller 0.02 rad, antiscatter 1.0°, and divergence. Scans were performed from 2 to 40° 2−θ with a 0.0167 step size. Data analysis was performed using X'Pert Data Viewer V1.2d (PANalytical B.V., Almelo, Netherlands).
as §1

MCL-1, sequence (Q07820 whole entry, species assumed): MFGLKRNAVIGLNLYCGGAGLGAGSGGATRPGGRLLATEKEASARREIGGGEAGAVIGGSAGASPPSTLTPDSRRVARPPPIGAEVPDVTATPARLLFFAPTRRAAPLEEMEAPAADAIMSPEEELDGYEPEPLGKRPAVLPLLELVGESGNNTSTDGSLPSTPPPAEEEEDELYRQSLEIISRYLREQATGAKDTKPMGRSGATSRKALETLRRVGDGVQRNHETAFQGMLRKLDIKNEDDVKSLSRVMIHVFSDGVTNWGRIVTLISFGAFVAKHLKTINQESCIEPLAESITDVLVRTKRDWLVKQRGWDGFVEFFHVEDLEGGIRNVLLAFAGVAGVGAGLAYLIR

| outcome of competitive slurry with Form I [1] | hygroscopicity (DVS analysis, in words) [2] | water (moisture) absorbed by DVS [2] | form change by XRPD post DVS [3] | moisture rapidly absorbed at ambient conditions ([2]; ambient conditions) | relative stability versus other unsolvated/desolvated forms ([1]; competitive slurries in EtOH) | Compound | MCL-1 inhibition (in words) (MCL-1) |
| --- | --- | --- | --- | --- | --- | --- | --- |
|  |  |  |  |  |  | COc1nn(C)cc1C(=O)N[S@@]1(=O)=NC(=O)c2ccc3c(c2)N(C[C@@H]2CC[C@H]2[C@@H](OC)/C=C/C[C@H](C)C1)C[C@@]1(CCCc2cc(Cl)ccc21)CO3 [Compound 1] | effective MCL-1 inhibitor |
| full conversion to Form I |  |  |  |  |  | COc1nn(C)cc1C(=O)N[S@@]1(=O)=NC(=O)c2ccc3c(c2)N(C[C@@H]2CC[C@H]2[C@@H](OC)/C=C/C[C@H](C)C1)C[C@@]1(CCCc2cc(Cl)ccc21)CO3 [Form IV] |  |
| full conversion to Form I | moderately hygroscopic | up to 5 wt % | no form change |  |  | COc1nn(C)cc1C(=O)N[S@@]1(=O)=NC(=O)c2ccc3c(c2)N(C[C@@H]2CC[C@H]2[C@@H](OC)/C=C/C[C@H](C)C1)C[C@@]1(CCCc2cc(Cl)ccc21)CO3 [Form III] |  |
| full conversion to Form I | slightly hygroscopic | up to 1.1 wt % | no form change |  |  | COc1nn(C)cc1C(=O)N[S@@]1(=O)=NC(=O)c2ccc3c(c2)N(C[C@@H]2CC[C@H]2[C@@H](OC)/C=C/C[C@H](C)C1)C[C@@]1(CCCc2cc(Cl)ccc21)CO3 [Form II] |  |
|  | moderately hygroscopic | about 5.5 wt % | no form change |  |  | COc1nn(C)cc1C(=O)N[S@@]1(=O)=NC(=O)c2ccc3c(c2)N(C[C@@H]2CC[C@H]2[C@@H](OC)/C=C/C[C@H](C)C1)C[C@@]1(CCCc2cc(Cl)ccc21)CO3 [DEA Salt Form 1] |  |
|  | moderately hygroscopic | about 7.5 wt % | no form change |  |  | COc1nn(C)cc1C(=O)N[S@@]1(=O)=NC(=O)c2ccc3c(c2)N(C[C@@H]2CC[C@H]2[C@@H](OC)/C=C/C[C@H](C)C1)C[C@@]1(CCCc2cc(Cl)ccc21)CO3 [Na salt Form 1] |  |
|  | moderately hygroscopic | about 11 wt % | no form change | 4-6 wt % |  | COc1nn(C)cc1C(=O)N[S@@]1(=O)=NC(=O)c2ccc3c(c2)N(C[C@@H]2CC[C@H]2[C@@H](OC)/C=C/C[C@H](C)C1)C[C@@]1(CCCc2cc(Cl)ccc21)CO3 [K Salt Form 1] |  |
|  | slightly hygroscopic | about 1.4 wt % | no form change |  | higher stability | COc1nn(C)cc1C(=O)N[S@@]1(=O)=NC(=O)c2ccc3c(c2)N(C[C@@H]2CC[C@H]2[C@@H](OC)/C=C/C[C@H](C)C1)C[C@@]1(CCCc2cc(Cl)ccc21)CO3 [Form I] |  |
